Results reported in PubChem BioAssay (NCI).
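The compound was tested at five concentrations on cells cultured in 96-well plates, with a 48-hour exposure period. At the TGI there is no net growth.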

Legend:
Assay in all cases: DTP human tumour cell line panel, 48 h
OVCAR-4 ovarian = tested on: OVCAR-4 ovarian
UACC-257 melanoma = tested on: UACC-257 melanoma
KM12 colon = tested on: KM12 colon
HCT-15 colon = tested on: HCT-15 colon
SF-539 CNS = tested on: SF-539 CNS
UACC-62 melanoma = tested on: UACC-62 melanoma
NCI/ADR-RES ovarian = tested on: NCI/ADR-RES ovarian
SK-MEL-28 melanoma = tested on: SK-MEL-28 melanoma
MDA-N = tested on: MDA-N
EKVX NSCLC = tested on: EKVX NSCLC
SF-268 CNS = tested on: SF-268 CNS
T-47D breast = tested on: T-47D breast
MCF7 breast = tested on: MCF7 breast
HL-60(TB) leukemia = tested on: HL-60(TB) leukemia
HCC-2998 colon = tested on: HCC-2998 colon
NCI-H522 lung = tested on: NCI-H522 lung

| Structure (SMILES) | TGI (OVCAR-4 ovarian) [µM] | TGI (UACC-257 melanoma) [µM] | TGI (KM12 colon) [µM] | TGI (HCT-15 colon) [µM] | TGI (SF-539 CNS) [µM] | TGI (UACC-62 melanoma) [µM] | TGI (NCI/ADR-RES ovarian) [µM] | TGI (SK-MEL-28 melanoma) [µM] | TGI (MDA-N) [µM] | TGI (EKVX NSCLC) [µM] | TGI (SF-268 CNS) [µM] | TGI (T-47D breast) [µM] | TGI (MCF7 breast) [µM] | TGI (HL-60(TB) leukemia) [µM] | TGI (HCC-2998 colon) [µM] | TGI (NCI-H522 lung) [µM] |
| --- | --- | --- | --- | --- | --- | --- | --- | --- | --- | --- | --- | --- | --- | --- | --- | --- |
| Cc1ccc(C2SC(N)=Nc3c2c(C)nn3C(=O)c2ccccc2O)cc1 (centres undefined) | > 10 | > 10 | > 10 | > 10 | > 10 | 4.27 | > 10 | > 10 | > 10 | > 10 | > 10 | > 10 | > 10 |  |  |  |
| CN(N)/N=N/c1nc[nH]c1[N+](=O)[O-] | > 100 | > 100 | > 100 | > 100 | > 100 | > 100 | > 100 | > 100 | > 100 | > 100 | > 100 | > 100 |  | 12.2 | > 100 | > 100 |
| Cc1ccc(N2CCC3(CC2)OCCO3)cc1 | > 100 | > 100 | > 100 | > 100 | > 100 | > 100 | > 100 | > 100 | > 100 | > 100 | > 100 | > 100 |  | > 100 | > 100 | > 100 |
| COc1ccc(N2C(=O)C3c4[nH]c5ccccc5c4C4CC(C)CC(C)C4C3C2=O)cc1 (centres undefined) | > 100 | > 100 |  | > 100 | > 100 | > 100 |  | > 100 |  | > 100 | > 100 |  |  | > 100 | > 100 | > 100 |
| Cc1ccc(/C=C2\CN(C)CC3C2=NN(c2ccccc2)C3c2ccc(C)cc2)cc1 (centres undefined) | > 100 | > 100 | > 100 | > 100 |  | > 100 | > 100 | > 100 | > 100 | > 100 | > 100 | > 100 | > 100 |  | > 100 | > 100 |
| COc1cc([C@H]2CC(=O)C[C@H](c3cc(OC)c(OC)c(OC)c3)C23C(=O)c2ccccc2C3=O)cc(OC)c1OC |  | > 100 | > 100 | > 100 | > 100 | > 100 | > 100 | > 100 |  | > 100 | > 100 | > 100 | > 100 |  | > 100 | 95.1 |
| CC(=O)N(C(C)=O)n1c(-c2ccccc2)n[nH]c1=O | > 100 | > 100 | > 100 | > 100 | > 100 | > 100 | > 100 | > 100 | > 100 | > 100 | > 100 |  | > 100 |  | > 100 | > 100 |
| CN(C)CC1CCCC(CN(C)C)C1=NOC(=O)c1ccccc1 (centres undefined) |  | > 100 | > 100 | > 100 | > 100 | > 100 |  | > 100 |  | > 100 | > 100 |  |  | > 100 | > 100 | > 100 |
| CC1OC(OC2C(OC(=O)[C@@H]3CC(C)(C)C[C@@H]4C5=CC[C@@H]6[C@@]7(C)C[C@H](O)[C@H](OC8OC(CO)C(O)C(O)C8O)[C@@](C)(CO)C7[C@H](O)C[C@@]6(C)[C@]5(C)C[C@@H](O)[C@H]43)OCC(O)C2O)C(O)C(O)C1O (some centres undefined) | > 15 | > 15 | > 15 | > 15 | > 15 | > 15 | > 15 |  |  | > 15 | > 15 | > 15 | > 15 | > 15 | > 15 | > 15 |
| NC(CCC(=O)NC(CSC(=O)N(O)c1ccccc1)C(=O)NCC(=O)O)C(=O)O (centres undefined) | > 1000 | > 1000 | > 1000 | > 1000 | > 1000 | > 1000 |  | > 1000 |  | > 1000 | > 1000 |  |  | > 1000 | > 1000 | > 1000 |
| CN(C(=O)C1CCCCCC1=O)c1ccccc1Cl (centres undefined) | > 100 | > 100 | > 100 | > 100 | > 100 |  | > 100 | > 100 |  | > 100 | > 100 | > 100 |  |  |  | > 100 |
| COc1ccc(/C=C2\N=C(SC)N(CN3CCCCC3)C2=O)cc1 | > 100 |  | > 100 | > 100 |  | > 100 | > 100 | > 100 | > 100 | > 100 | > 100 |  | > 100 |  |  | > 100 |
| COCn1cnc2c(=O)n(-c3ccc(OC)cc3)c(=S)n(-c3ccc(OC)cc3)c21 | > 100 | > 100 | > 100 | > 100 | > 100 | > 100 | > 100 | > 100 |  | > 100 | > 100 | > 100 | > 100 | > 100 | > 100 | > 100 |
| C=CCc1ccccc1CC1(OCC)OC(=O)c2ccccc21 (centres undefined) | > 100 | > 100 |  | > 100 | > 100 | > 100 |  | > 100 | 71.8 | > 100 | > 100 | > 100 | > 100 |  | > 100 | > 100 |
| CC(=O)N1C(NN(C)C)CCN1c1ccccc1 (centres undefined) | > 10 | > 10 | > 10 | > 10 |  | > 10 |  | > 10 |  | > 10 | > 10 | > 10 | > 10 | > 10 | > 10 |  |
| CC(C)C(Sc1nc(-c2ccccc2)c(-c2ccccc2)[nH]1)C(=O)NN (centres undefined) | > 100 | > 100 | > 100 | > 100 | > 100 |  |  | > 100 |  |  | > 100 |  |  | > 100 |  | > 100 |
| NC(=O)C1Cc2cc3c(cc21)OCO3 (centres undefined) |  | > 100 | > 100 | > 100 | > 100 | > 100 | > 100 |  | > 100 | > 100 | > 100 |  | > 100 |  | > 100 | > 100 |
| CSc1sc(=S)sc1C(=O)N(C)c1ccccc1 | > 100 |  | > 100 | > 100 | > 100 | > 100 |  | > 100 |  | > 100 | > 100 |  |  | > 100 |  | > 100 |
| CCN(CC)c1c(-c2c(N(CC)CC)c(OC(C)=O)c3sccn3c2=O)c(=O)n2ccsc2c1OC(C)=O | > 100 | > 100 | > 100 | > 100 | > 100 | > 100 | > 100 | > 100 | > 100 | > 100 | > 100 |  |  | > 100 | > 100 |  |
| Cc1ccc(C)n1-c1ccccc1C1C=CN(C(=O)OC(C)(C)C)C=C1 | > 100 | > 100 | 31.2 | 45.7 | > 100 | 77.9 | > 100 | > 100 | > 100 | 60.8 | > 100 |  | 32.6 | > 100 | 34 | 36.2 |
| CCCCCCCCCCCCCCCCOCC(CP(=O)([O-])OCC[n+]1ccccc1)OC (centres undefined) | 24.1 | 28.8 | 5.62 |  | 28.4 | 24.5 |  | 32.2 |  | 34.7 | 24.9 |  |  | 5.19 | 7.4 | 39.5 |
| COc1cccc(-c2nc3ccccc3c(=O)[nH]2)c1OC | > 100 | > 100 | > 100 | > 100 |  | > 100 | > 100 |  | > 100 | > 100 | > 100 | > 100 | > 100 |  | > 100 |  |
| O=C(O)CCc1cccc2c1oc1c(CCC(=O)O)cccc12 | > 100 | > 100 | > 100 | > 100 | > 100 | > 100 |  | > 100 |  |  | > 100 |  |  | > 100 | > 100 | > 100 |
| COc1c(Br)cc(/C=C(\C#N)c2cccnc2)cc1Br | > 100 | > 100 | > 100 | > 100 | > 100 | > 100 | > 100 | > 100 | > 100 | > 100 | > 100 |  | > 100 | > 100 | > 100 | > 100 |
| Nc1ncnc2c1ncn2C1OC(CO)C(O)C(O)C1O (centres undefined) | > 100 | > 100 | > 100 | > 100 | > 100 |  | > 100 | > 100 | > 100 | > 100 | > 100 |  | > 100 | > 100 | > 100 | > 100 |
| COC(=O)CN1SC2(SC13C(C)(C)C(=O)C3(C)C)C(C)(C)C(=O)C2(C)C | > 100 | > 100 | > 100 | > 100 | > 100 | > 100 | 87.8 | > 100 |  | > 100 | > 100 | > 100 | > 100 |  | > 100 |  |
